Laboratory results reported in article PMC12498190, “A Photocaged N‐Phosphonopiperidinone as a Selective Photo‐Cleavable DPP8/9 Inhibitor” (Chembiochem, 2025).
Read-outs that look alike come from different tables or passages of the source.

What was measured:
[1] = biological target: T1, human DPP8 (Homo sapiens, UniProt Q6V1X1); test: Progress-curve kinetics of covalent DPP8 inhibition (kinact, KI); format: biochemical; details: dark
T1 construct: purchased Proteros Biostructures GmbH, Germany
Excerpt: As previously shown by us, 1 inhibits DPP8 and DPP9 via a covalent modification of the active site serine.^[ [31] ^] Therefore, we also measured the time dependence of this covalent modification of the target enzyme by recording progress curves for the inhibition of DPP8 and 9 and using them to calculate the corresponding binding affinity (KI), maximum enzyme inhibition rate (kinact) as well as the efficiency of covalent bond formation (kinact/KI) values for 5 after and without green light irradiation ( Figure S1 and Table S1, Supporting Information).
To calculate the reaction rate of covalent bond formation between DPP proteins and the inhibitor, kinact, KI, and kinact/KI were determined as previously described.^[ [49] ^, [50] ^] To this end, a dilution series of 5 was irradiated using a green LED lamp (λ = 520−530 nm; Eurolite, Germany) for 5 min and subsequently mixed with 250 µM GP‐AMC. The mixture was then added to 10 nM enzyme, and the resulting activity was measured for a maximum of 60 min at 30 °C. Fluorescence intensities were plotted against time and data were fitted to the following equation: [drawing 1] using Graph‐Pad Prism v10.4.1. The obtained pseudo first‐order rate constant was used to determine kinact and KI by fitting the plot of kobs against inhibitor concentration to the following equation: [drawing 2] . The efficiency of covalent bond formation (kinact/KI) was calculated by the ratio of kinact/KI. All measurements were performed in triplicate, and error bars represent standard errors of the fit.
Supplementary Figure 1. Kinetic analysis of DPP8 and DPP9 inhibition by compound 5. The pseudo-first order rate constant (kobs) was calculated from an exponential regression of progress curves and plotted against the concentration of compound 5. All measurement were performed in triplicate (n = 3 technical replicates), mean values are shown and error bars indicate the standard error of the mean (SEM). Inhibition assay was performed with DPP8 (A, B) and DPP9 (C, D) under ‘dark’ (A, C) and ‘light’ (B, D) conditions. […]

[2] = biological target: T1, human DPP8; test: DPP8 enzyme inhibition assay, AMC release from GP-AMC; format: biochemical; details: for IC50: 45 min pre-incubation, read-out: Apparent IC50
Excerpt: We then continued to investigate the biochemical properties of the photocaged compound 5 versus the photoreleased product resembling inhibitor 1. To this end, we performed biochemical enzyme inhibition assays with DPP8 and DPP9 before and after irradiation of 5. Resulting DPP8/9 inhibition was quantified by following the DPP8‐ or DPP9‐mediated proteolysis of the fluorophore 7‐amino‐4‐methylcoumarin (AMC) from the model substrate Gly‐Pro‐AMC (Figure 1C,D and Table 1 ). To induce photocleavage of 5, reaction mixtures were irradiated for 5 min with the same green LED lamp as before, followed by a pre‐incubation of 45 min with the photoreleased inhibitor prior to substrate addition.
Enzyme activity of human DPP4, DPP8, and DPP9 (Proteros Biostructures GmbH, Germany) was determined by measuring the initial velocity of AMC release from the fluorogenic substrate GP‐AMC (Sigma Aldrich, USA) using a Tecan Spark 10 M multimode microplate reader (Tecan Group Ltd., Switzerland) in activity buffer (20 mM HEPES/KOH pH 7.3, 110 mM potassium acetate, 2 mM magnesium acetate, 0.5 mM EGTA, 0.02% Tween 20, supplemented with 1 mM DTT) and a final volume of 20 μL for maximal 30 min at 30 °C. Prior to the activity measurement, 10 nM of the corresponding enzyme was incubated for 45 min at 30 °C and gentle shaking with the indicated compounds at concentrations ranging from 0 to 100 μM, followed by irradiation with a green LED lamp (λ = 520−530 nm; Eurolite, Germany) for 5 min. The corresponding compounds were dissolved in DMSO and diluted in activity buffer (final DMSO concentration: 1%). To the inhibitor–enzyme mixture, GP‐AMC was then added to a final concentration of 250 μM, and the activity measurement was started. The resulting enzyme activity was calculated from the slope (fluorescence release over time) and plotted against the concentrations of the inhibitor. Apparent IC50 values were calculated using Graph‐Pad Prism v10.4.1 using the equation: [Inhibitor] versus response‐Variable slope (four parameters). All measurements were performed in triplicate, and error bars represent standard errors of the fit.

T1 sequence (Q6V1X1 whole entry): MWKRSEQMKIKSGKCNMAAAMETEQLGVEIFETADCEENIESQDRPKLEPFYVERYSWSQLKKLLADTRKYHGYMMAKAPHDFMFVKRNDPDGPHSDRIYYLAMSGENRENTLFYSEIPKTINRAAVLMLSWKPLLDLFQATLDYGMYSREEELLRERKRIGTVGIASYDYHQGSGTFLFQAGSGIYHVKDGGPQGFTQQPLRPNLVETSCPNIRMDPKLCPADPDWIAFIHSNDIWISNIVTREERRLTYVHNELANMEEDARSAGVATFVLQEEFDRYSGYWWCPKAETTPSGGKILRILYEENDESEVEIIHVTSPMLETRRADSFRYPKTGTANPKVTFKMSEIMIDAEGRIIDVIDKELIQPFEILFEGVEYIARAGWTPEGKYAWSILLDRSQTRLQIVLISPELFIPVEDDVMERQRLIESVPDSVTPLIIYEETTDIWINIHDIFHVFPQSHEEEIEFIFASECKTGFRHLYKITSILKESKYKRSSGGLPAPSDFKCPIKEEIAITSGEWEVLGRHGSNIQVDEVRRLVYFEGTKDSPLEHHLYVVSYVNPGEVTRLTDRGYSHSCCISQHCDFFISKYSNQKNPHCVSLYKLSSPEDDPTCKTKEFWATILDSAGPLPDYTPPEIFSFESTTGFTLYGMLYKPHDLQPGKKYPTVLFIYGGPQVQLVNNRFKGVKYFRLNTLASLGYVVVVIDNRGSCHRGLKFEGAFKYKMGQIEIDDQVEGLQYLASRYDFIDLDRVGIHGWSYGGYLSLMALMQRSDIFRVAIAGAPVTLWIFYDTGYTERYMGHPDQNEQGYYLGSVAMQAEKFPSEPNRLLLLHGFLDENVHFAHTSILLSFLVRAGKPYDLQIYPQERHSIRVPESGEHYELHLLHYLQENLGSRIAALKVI

Question: Which results are given for CCCCCc1ccc(SCCP(=O)(OCC)N2CCC[C@H](NC(=O)OCC3=C4C(C)=CC(C)=[N+]4[B-](C)(C)n4c(C)cc(C)c43)C2=O)cc1 (stereo partly shown) [Compound 5]?
Answer: KI (inactivation) [1]: 8940 nM; kinact [1]: 0.002 s⁻¹; kinact/KI [1]: 223 M⁻¹ s⁻¹; Dark/light ratio of apparent IC50 [2]: 30; Increase in potency after green light-mediated photorelease ([2]; apparent IC50 dark vs light): about 30 fold; IC50 ([2]; dark (without green light irradiation)): 1100 nM; IC50 ([2]; light (5 min green LED, 520-530 nm)): 37 ± 3 nM
